Assay results published in patent publication US20020028936A1, “1,3-disubstituted indolin-2-ones for neoplasia” (priority 1999, published 2002).

Columns and labels:
[1] = system: human colon carcinoma cell line, HT-29; experiment: Growth inhibition, Sulforhodamine B (SRB) protein binding assay; format: cell-based; settings: HT-29 cells, six days continuous exposure, read-out: IC50 value (concentration of drug needed to inhibit tumor cell growth by 50%)
Procedure: The compound of Example No. 1 was assayed for their growth inhibitory activity on the human colon carcinoma cell line, HT-29 obtained from ATCC (Rockville, Md.), to ascertain the degree of growth inhibition. Growth inhibition of this cell line is indicative of a benefit on precancerous lesions and neoplasms. The cell line and growth inhibition assay employed for such experiments are well characterized, and are used to evaluate the anti-neoplastic properties of substances. The assay is used by the United States National Cancer Institute in its screening program for new anti-cancer drugs.
Drug stock solutions were made in 100% DMSO and were then diluted with RPMI media for cell culture testing. All drug solutions were prepared fresh on the day of testing. The cultured cells were obtained at passage #99 and grown in RPMI media supplemented with 5% fetal calf serum, and 2 mM glutamine, 100 U/ml penicillin, […] streptomycin, and 0.25 μg/ml amphotericin. The cultures were maintained in a humidified atmosphere of 95% air and 5% CO2 at 37° C. The cultures were passaged at preconfluent densities using a solution of 0.05% trypsin and 0.53 mM EDTA. […]
Tumor cell growth inhibition was assessed using the Sulforhodamine B (SRB) protein binding assay. […] The dye was then solubilized, and the optical density of the resulting solution was determined on a 96-well plate reader. […]

[2] = target: T1, purified cyclooxygenase Type I (Ovis aries, UniProt P05979); experiment: Cyclooxygenase (COX) inhibition, purified COX; format: biochemical; settings: 100 μM compound; COX purified from ram seminal vesicles; arachidonic acid 100 μM, 2.0 min at 37° C.
T1 construct: The COX was purified from ram seminal vesicles; from tissue; host or cells: ram seminal vesicles
T1 sequence (P05979 25-600): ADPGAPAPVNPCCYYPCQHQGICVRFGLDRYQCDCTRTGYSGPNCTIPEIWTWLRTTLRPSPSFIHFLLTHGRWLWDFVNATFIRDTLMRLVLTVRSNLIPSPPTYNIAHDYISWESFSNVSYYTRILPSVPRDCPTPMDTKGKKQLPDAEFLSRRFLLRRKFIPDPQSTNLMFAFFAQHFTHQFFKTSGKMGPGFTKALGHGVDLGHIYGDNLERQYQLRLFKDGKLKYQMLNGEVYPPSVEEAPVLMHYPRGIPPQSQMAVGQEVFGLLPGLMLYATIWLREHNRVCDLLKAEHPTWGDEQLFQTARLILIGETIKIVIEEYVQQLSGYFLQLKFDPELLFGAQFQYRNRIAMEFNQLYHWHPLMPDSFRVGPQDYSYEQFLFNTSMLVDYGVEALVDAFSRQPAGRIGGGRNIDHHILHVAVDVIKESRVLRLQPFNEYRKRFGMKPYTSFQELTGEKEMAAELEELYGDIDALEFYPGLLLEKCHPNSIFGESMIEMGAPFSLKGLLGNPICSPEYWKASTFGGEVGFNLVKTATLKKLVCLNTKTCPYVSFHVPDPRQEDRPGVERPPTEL
Procedure: The assay was terminated by the addition of TCA, and COX activity was determined by absorbance at 530 nm.

[3] = system: SW-480 colon adenocarcinoma cells; experiment: Apoptosis, DNA fragmentation (Cell Death Detection ELISA plus); format: cell-based; settings: at 100 μM; SW-480 cells, 48 hrs incubation
Procedure: Apoptosis was measured based on the amount of fragmented DNA contained in cell lysates. Briefly, SW-480 colon adenocarcinoma cells were plated in 96-well microtitre plates (“MTP”) at a density of 10K cells/well in 180 μl and were incubated for 24 hrs. Cells were then treated with 20 μl aliquots of appropriately diluted compound, and allowed to incubate for an additional 48 hrs.
After the incubation, samples were prepared according to the following steps. The MTP was centrifuged (15 min., 1000 rpm) and the supernatant was carefully removed by fast inversion of the MTP. […] Samples were analyzed immediately, because storage at 4° C. or −20° C. reduces the ELISA-signals.
Samples were then processed according to a DNA fragmentation assay protocol, and dose-response curves were generated based on optical density readings. Quantification of DNA was done by a commercially available photometric enzyme-immunoassay manufactured by Mannheim-Boehringer under the name “Cell Death Detection ELISA^plus”. The assay is based on a quantitative sandwich-enzyme-immunoassay-principle using mouse monoclonal antibodies directed against DNA and histones, respectively. […] After removal of unbound antibodies by a washing step, the amount of nucleosomes is quantified by the POD retained in the immunocomplex. POD is determined photometrically with ABTS® (2,2′-Azino-di[3-ethylbenzthiazolin-sulfonate) as substrate. […]

Compound: O=C1C(=Cc2ccccc2)c2ccccc2N1Cc1ccc(F)cc1 [Example 1, (Z, E) 1-(4-Fluorobenzyl)-3-Benzylidene-Indolin-2-One]
- IC50 [1]: ~7.3 µM
- COX I % Inhibition (100 μM) [2]: <25%
- fold stimulation (apoptosis, fragmented DNA) [3]: 6 fold
